Laboratory results: the supplement of paper PMC11061612

Key:
Capivasertib = compound: C1CN(CCC1(C(=O)N[C@@H](CCO)C2=CC=C(C=C2)Cl)N)C3=NC=NC4=C3C=CN4 [Capivasertib]; conditions: max 10 µM
Outline: (§1)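 In 1536-well plates, cancer cell lines in 7.5 μl DMEM/F12 or RPMI with 10% FBS spent 24 hours at 37°C and 5% CO2 and were then dosed for 72 hours with final DMSO typically 0.2%. Viability was read by CellTiter-Glo 2.0 luminescence and scaled between blank-well and DMSO-well means. The single-agent IC50 was fitted from dose responses using a logistic curve in a non-linear mixed effects model, and that logistic curve had two parameters.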

AZD1775 = compound: C=CCn1c(=O)c2cnc(Nc3ccc(N4CCN(C)CC4)cc3)nc2n1-c1cccc(C(C)(C)O)n1 [AZD1775]; conditions: max 3 µM
Outline: as §1

Trametinib = compound: CC(=O)Nc1cccc(-n2c(=O)n(C3CC3)c(=O)c3c(Nc4ccc(I)cc4F)n(C)c(=O)c(C)c32)c1 [Trametinib]; conditions: max 1 µM
Outline: as §1

Palbociclib = compound: CC(=O)c1c(C)c2cnc(Nc3ccc(N4CCNCC4)cn3)nc2n(C2CCCC2)c1=O [Palbociclib]; conditions: max 10 µM
Outline: as §1

AZD1390 = compound: CC(C)n1c(=O)n(C)c2cnc3cc(F)c(-c4ccc(OCCCN5CCCCC5)nc4)cc3c21 [AZD1390]; conditions: max 0.3 µM
Outline: as §1

Venetoclax = compound: CC1(C)CCC(CN2CCN(c3ccc(C(=O)NS(=O)(=O)c4ccc(NCC5CCOCC5)c([N+](=O)[O-])c4)c(Oc4cnc5[nH]ccc5c4)c3)CC2)=C(c2ccc(Cl)cc2)C1 [Venetoclax]; conditions: max 1 µM
Outline: as §1

Dasatinib = compound: CC1=C(C(=CC=C1)Cl)NC(=O)C2=CN=C(S2)NC3=CC(=NC(=N3)C)N4CCN(CC4)CCO [Dasatinib]; conditions: max 2 µM
Outline: as §1

SG3199 = compound: CC1=CN2[C@@H](C1)C=NC3=CC(=C(C=C3C2=O)OC)OCCCCCOC4=C(C=C5C(=C4)N=C[C@@H]6CC(=CN6C5=O)C)OC [SG3199]; conditions: max 0.001 µM
Outline: as §1

AZD2811 = compound: CCN(CCO)CCCOc1ccc2c(Nc3cc(CC(=O)Nc4cccc(F)c4)[nH]n3)ncnc2c1 [AZD2811]; conditions: max 1 µM
Outline: as §1

SN-38 = compound: CCc1c2c(nc3ccc(O)cc13)-c1cc3c(c(=O)n1C2)COC(=O)[C@]3(O)CC [SN-38]; conditions: max 0.3 µM
Outline: as §1

AZD0156 = compound: CN(C)CCCOc1ccc(-c2ccc3ncc4c(c3c2)n(C2CCOCC2)c(=O)n4C)cn1 [AZD0156]; conditions: max 3 µM
Outline: as §1

AZD4320 = compound: CN(CC[C@H](CSC1=CC=CC=C1)NC2=C(C=C(C=C2)S(=O)(=O)NC(=O)C3=CC=C(C=C3)N4CCC(CC4)[C@H](C5=CC=CC=C5C6=CC=C(C=C6)Cl)O)S(=O)(=O)C(F)(F)F)CCO [AZD4320]; conditions: max 1 µM
Outline: as §1

Alisertib = compound: COc1cc(Nc2ncc3c(n2)-c2ccc(Cl)cc2C(c2c(F)cccc2OC)=NC3)ccc1C(=O)O [Alisertib]; conditions: max 10 µM
Outline: as §1

Gefitinib = compound: COc1cc2ncnc(Nc3ccc(F)c(Cl)c3)c2cc1OCCCN1CCOCC1 [Gefitinib]; conditions: max 10 µM
Outline: as §1

Prexasertib = compound: COc1cccc(OCCCN)c1-c1cc(Nc2cnc(C#N)cn2)n[nH]1 [Prexasertib]; conditions: max 1 µM
Outline: as §1

Doxorubicin = compound: COc1cccc2c1C(=O)c1c(O)c3c(c(O)c1C2=O)C[C@@](O)(C(=O)CO)C[C@@H]3O[C@H]1C[C@H](N)[C@H](O)[C@H](C)O1 [Doxorubicin]; conditions: max 1 µM
Outline: as §1

AZD5153 = compound: COc1nnc2ccc(N3CCC(c4ccc(OCCN5CCN(C)C(=O)[C@H]5C)cc4)CC3)nn12 [AZD5153]; conditions: max 1 µM
Outline: as §1

Lapatinib = compound: CS(=O)(=O)CCNCc1ccc(-c2ccc3ncnc(Nc4ccc(OCc5cccc(F)c5)c(Cl)c4)c3c2)o1 [Lapatinib]; conditions: max 10 µM
Outline: as §1

AZD8186 = compound: C[C@@H](Nc1cc(F)cc(F)c1)c1cc(C(=O)N(C)C)cc2c(=O)cc(N3CCOCC3)oc12 [AZD8186]; conditions: max 3 µM
Outline: as §1

Crizotinib = compound: C[C@@H](Oc1cc(-c2cnn(C3CCNCC3)c2)cnc1N)c1c(Cl)ccc(F)c1Cl [Crizotinib]; conditions: max 10 µM
Outline: as §1

Savolitinib = compound: C[C@@H](c1ccc2nccn2c1)n1nnc2ncc(-c3cnn(C)c3)nc21 [Savolitinib]; conditions: max 1 µM
Outline: as §1

AZD6738 = compound: C[C@@H]1COCCN1C2=NC(=NC(=C2)C3(CC3)[S@](=N)(=O)C)C4=C5C=CNC5=NC=C4 [AZD6738]; conditions: max 10 µM
Outline: as §1

AZD5991 = compound: Cc1c2c(nn1C)CSCc1cc(n(C)n1)CSc1cc(c3ccccc3c1)OCCCc1c(C(=O)O)n(C)c3c-2c(Cl)ccc13 [AZD5991]; conditions: max 1 µM
Outline: as §1

AZD7648 = compound: Cc1cc2ncnn2cc1Nc1ncc2c(n1)n(C1CCOCC1)c(=O)n2C [AZD7648]; conditions: max 10 µM
Outline: as §1

Taselisib = compound: Cc1nc(-c2cn3c(n2)-c2ccc(-c4cnn(C(C)(C)C(N)=O)c4)cc2OCC3)n(C(C)C)n1 [Taselisib]; conditions: max 10 µM
Outline: as §1

Selumetinib = compound: Cn1cnc2c(F)c(Nc3ccc(Br)cc3Cl)c(C(=O)NOCCO)cc21 [Selumetinib]; conditions: max 10 µM
Outline: as §1

MK-2206 = compound: NC1(c2ccc(-c3nc4ccn5c(=O)[nH]nc5c4cc3-c3ccccc3)cc2)CCC1 [MK-2206]; conditions: max 10 µM
Outline: as §1

Olaparib = compound: O=C(c1cc(Cc2n[nH]c(=O)c3ccccc23)ccc1F)N1CCN(C(=O)C2CC2)CC1 [Olaparib]; conditions: max 10 µM
Outline: as §1

Cell Line	IC50, cell viability 72 h (Capivasertib)	IC50, cell viability 72 h (AZD1775)	IC50, cell viability 72 h (Trametinib)	IC50, cell viability 72 h (Palbociclib)	IC50, cell viability 72 h (AZD1390)	IC50, cell viability 72 h (Venetoclax)	IC50, cell viability 72 h (Dasatinib)	IC50, cell viability 72 h (SG3199)	IC50, cell viability 72 h (AZD2811)	IC50, cell viability 72 h (SN-38)	IC50, cell viability 72 h (AZD0156)	IC50, cell viability 72 h (AZD4320)	IC50, cell viability 72 h (Alisertib)	IC50, cell viability 72 h (Gefitinib)	IC50, cell viability 72 h (Prexasertib)	IC50, cell viability 72 h (Doxorubicin)	IC50, cell viability 72 h (AZD5153)	IC50, cell viability 72 h (Lapatinib)	IC50, cell viability 72 h (AZD8186)	IC50, cell viability 72 h (Crizotinib)	IC50, cell viability 72 h (Savolitinib)	IC50, cell viability 72 h (AZD6738)	IC50, cell viability 72 h (AZD5991)	IC50, cell viability 72 h (AZD7648)	IC50, cell viability 72 h (Taselisib)	IC50, cell viability 72 h (Selumetinib)	IC50, cell viability 72 h (MK-2206)	IC50, cell viability 72 h (Olaparib)
RH-1 (Ewing's Sarcoma)	> 10 µM	95.1 nM	> 1000 nM	> 10 µM	> 300 nM	> 1000 nM	> 2000 nM	> 1 nM	22.6 nM	4.35 nM	> 3000 nM	830 nM	0.039 µM	> 10 µM	18.4 nM	56.1 nM	> 1000 nM	> 10 µM	> 3000 nM	2.25 µM	> 1000 nM	2 µM	550 nM	> 10 µM	6.26 µM	> 10 µM	> 10 µM	> 10 µM
SNU-C5 (Colorectal Carcinoma)	> 10 µM	507 nM	563 nM	> 10 µM	> 300 nM	> 1000 nM	> 2000 nM	> 1 nM	> 1000 nM	43.5 nM	> 3000 nM	> 1000 nM	9.36 µM	> 10 µM	21.8 nM	> 1000 nM	578 nM	> 10 µM	> 3000 nM	> 10 µM	> 1000 nM	4 µM	> 1000 nM	> 10 µM	2.01 µM	> 10 µM		> 10 µM
SUIT-2 (Pancreatic Carcinoma)	> 10 µM	1860 nM	478 nM	> 10 µM	> 300 nM	> 1000 nM	> 2000 nM	> 1 nM	> 1000 nM	32.6 nM	> 3000 nM	> 1000 nM	> 10 µM	> 10 µM	178 nM	> 1000 nM	> 1000 nM	> 10 µM	> 3000 nM	> 10 µM	> 1000 nM	> 10 µM	> 1000 nM	> 10 µM	> 10 µM	> 10 µM	> 10 µM	> 10 µM
SW756 (Cervical Carcinoma)	> 10 µM	> 3000 nM	> 1000 nM	> 10 µM	> 300 nM	> 1000 nM	> 2000 nM	> 1 nM	> 1000 nM	32.3 nM	> 3000 nM	> 1000 nM	> 10 µM	> 10 µM	> 1000 nM	> 1000 nM	> 1000 nM	> 10 µM	> 3000 nM	> 10 µM	> 1000 nM	> 10 µM	> 1000 nM	> 10 µM	> 10 µM	> 10 µM	> 10 µM	> 10 µM
SW780 (Bladder Carcinoma)	> 10 µM	> 3000 nM	> 1000 nM	> 10 µM	> 300 nM	> 1000 nM	> 2000 nM	> 1 nM	> 1000 nM	247 nM	> 3000 nM	> 1000 nM	> 10 µM	> 10 µM	> 1000 nM	> 1000 nM	> 1000 nM	> 10 µM	> 3000 nM	> 10 µM	> 1000 nM	> 10 µM	> 1000 nM	> 10 µM	> 10 µM	> 10 µM	> 10 µM	> 10 µM
TGBC24TKB (Biliary Tract Carcinoma)	> 10 µM	815 nM	933 nM	> 10 µM	> 300 nM	> 1000 nM	> 2000 nM	> 1 nM	923 nM	> 300 nM	> 3000 nM	> 1000 nM	1.86 µM	> 10 µM	49.4 nM	> 1000 nM	665 nM	8.01 µM	> 3000 nM	9.9 µM	> 1000 nM	7.4 µM	> 1000 nM	> 10 µM	0.561 µM	> 10 µM	> 10 µM	> 10 µM
